Experimental findings from PubChem BioAssay AID328 (DTP/NCI, 2004) are described below.

The subject of the assay is BDF1 mice, P388 leukemia ip, median survival T/C. Nature of the assay: NCI In Vivo Anticancer Drug Screen. Data for tumor model P388 Leukemia (intraperitoneal) in B6D2F1 (BDF1) mice. Particulars: endpoint: median survival time, higher = longer survival. The gist of the method: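 Survival ratio, drug arm over vehicle arm, in mice with a transplanted tumour.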
Where [1] appears, read: dose: 100.0 mg/kg/injection, schedule: Q01DX001 (ip), vehicle: Klucel (hydroxypropylcellulose) (HPC).
[2] abbreviates: dose: 200.0 mg/kg/injection, schedule: Q01DX001 (ip), vehicle: Klucel (hydroxypropylcellulose) (HPC).
Where [3] appears, read: dose: 50.0 mg/kg/injection, schedule: Q04DX003 (ip), vehicle: Klucel (hydroxypropylcellulose) (HPC).
Where [4] appears, read: dose: 100.0 mg/kg/injection, schedule: Q04DX003 (ip), vehicle: Klucel (hydroxypropylcellulose) (HPC).
[5] abbreviates: dose: 200.0 mg/kg/injection, schedule: Q04DX003 (ip), vehicle: Klucel (hydroxypropylcellulose) (HPC).
Setting [6] is: dose: 50.0 mg/kg/injection, schedule: Q01DX009 (ip), vehicle: saline with Tween-80.
Setting [7] is: dose: 100.0 mg/kg/injection, schedule: Q01DX009 (ip), vehicle: saline with Tween-80.
Where [8] appears, read: dose: 12.5 mg/kg/injection, schedule: Q01DX009 (ip), vehicle: saline with Tween-80.
Where [9] appears, read: dose: 25.0 mg/kg/injection, schedule: Q01DX009 (ip), vehicle: saline with Tween-80.
Where [10] appears, read: dose: 200.0 mg/kg/injection, schedule: Q04DX003 (ip), vehicle: saline with Tween-80.

“And” between values parts separate entries of the source, which are not always exact repeats. Equal entries are not always repeated. Toxic doses and inconclusive results are not listed.

As for `C/C=C(/C)C(=O)O[C@H]1CCN2CC=C(COC(=O)[C@@](O)([C@H](C)OC)C(C)(C)O)[C@H]12`, the T/C runs as follows: (dose: 12.5 mg/kg/injection, schedule: Q01DX010 (ip), vehicle: saline) 95 % of control; (dose: 25.0 mg/kg/injection, schedule: Q01DX010 (ip), vehicle: saline) 100 % of control.
For `COc1cc2c(cc1OC)[C@H]1CNC[C@H]1[C@@H](c1ccccc1)C2`, the T/C (dose: 95.0 mg/kg/injection, schedule: Q01DX001 (ip), vehicle: Klucel (hydroxypropylcellulose) (HPC)) was 100 % of control; the T/C under setting [1] is 100 % of control and 110 % of control; the T/C (dose: 135.0 mg/kg/injection, schedule: Q01DX001 (ip), vehicle: Klucel (hydroxypropylcellulose) (HPC)) is 104 % of control; the T/C under setting [2] is 95 % of control and 104 % of control; the T/C (dose: 300.0 mg/kg/injection, schedule: Q01DX001 (ip), vehicle: Klucel (hydroxypropylcellulose) (HPC)) is 90 % of control.
`Cc1c(F)cc(I)cc1[N+](=O)[O-]`: the T/C by setting is: under setting [1], 113 % of control; under setting [2], 104 % of control; (dose: 400.0 mg/kg/injection, schedule: Q01DX001 (ip), vehicle: Klucel (hydroxypropylcellulose) (HPC)) 118 % of control.
As for `COC(OC)C1(O)CC(C(C)COC2CCCCO2)OC(=O)N1` (stereo not given), the T/C is 102 % of control under setting [3], 106 % of control under setting [4] and 106 % of control under setting [5].
With `C=CCC(CC)(C(=O)OCC)C(=O)OCC`, the T/C is 100 % of control (dose: 100.0 mg/kg/injection, schedule: Q01DX009 (ip), vehicle: saline); 104 % of control (dose: 200.0 mg/kg/injection, schedule: Q01DX009 (ip), vehicle: saline); 122 % of control (dose: 400.0 mg/kg/injection, schedule: Q01DX009 (ip), vehicle: saline).
In the case of `Cn1c(Cc2ccccc2)c([N+](=O)[O-])c(=O)n(C)c1=O`, the T/C runs as follows: under setting [6], 110 % of control; under setting [7], 113 % of control.
Take `CCCNC(=S)NNC(=O)c1ccncc1`: the T/C by setting is: (dose: 6.25 mg/kg/injection, schedule: Q01DX009 (ip), vehicle: saline with Tween-80) 98 % of control; under setting [8], 97 % of control; under setting [9], 100 % of control; under setting [6], 90 % of control; under setting [7], 100 % of control.
Consider `Cc1[nH]nc(C(N)=O)c1N=NN(C)C`, for which the T/C is 182 % of control (dose: 132.0 mg/kg/injection, schedule: Q04DX003 (ip), vehicle: saline with Tween-80); 186 % of control under setting [10]; 100 % of control (dose: 300.0 mg/kg/injection, schedule: Q04DX003 (ip), vehicle: saline with Tween-80).
`Clc1ccc(N2CCN(CCCN3CCN(c4cccc(Cl)c4)CC3)CC2)cc1`: the T/C is 100 % of control (dose: 50.0 mg/kg/injection, schedule: Q04DX003 (ip), vehicle: saline sonified); 100 % of control (dose: 100.0 mg/kg/injection, schedule: Q04DX003 (ip), vehicle: saline sonified); 91 % of control (dose: 200.0 mg/kg/injection, schedule: Q04DX003 (ip), vehicle: saline sonified).
Regarding `O=C1NC(c2ccccc2Cl)Nc2ccccc21` (stereo not given), the T/C (dose: 100.0 mg/kg/injection, schedule: Q01DX009 (ip), vehicle: Klucel (hydroxypropylcellulose) (HPC)) is 100 % of control and 115 % of control; the T/C (dose: 200.0 mg/kg/injection, schedule: Q01DX009 (ip), vehicle: Klucel (hydroxypropylcellulose) (HPC)) was 115 % of control and 120 % of control.
`CC(C)(C)[Si](C)(C)OC(=O)Nc1ccc(N(CCCl)CCCl)cc1`: the T/C (dose: 0.05 mg/kg/injection, schedule: Q01DX009 (ip), vehicle: saline with Tween-80) was 104 % of control; the T/C (dose: 0.07 mg/kg/injection, schedule: Q01DX009 (ip), vehicle: saline with Tween-80) was 114 % of control; the T/C (dose: 0.11 mg/kg/injection, schedule: Q01DX009 (ip), vehicle: saline with Tween-80) was 117 % of control; the T/C (dose: 0.16 mg/kg/injection, schedule: Q01DX009 (ip), vehicle: saline with Tween-80) was 108 % of control; the T/C (dose: 0.32 mg/kg/injection, schedule: Q01DX009 (ip), vehicle: saline with Tween-80) is 107 % of control.
For the compound `OCCNCc1ccc2ccccc2n1`, the T/C was 100 % of control (dose: 100.0 mg/kg/injection, schedule: Q04DX003 (ip), vehicle: saline) and 100 % of control (dose: 200.0 mg/kg/injection, schedule: Q04DX003 (ip), vehicle: saline).
For the compound `CN(C)N=Nc1cc(Cl)cc(C(N)=O)c1Cl`, the T/C under setting [8] was 108 % of control; the T/C under setting [9] is 104 % of control; the T/C under setting [6] is 104 % of control; the T/C (dose: 88.0 mg/kg/injection, schedule: Q01DX009 (ip), vehicle: saline with Tween-80) is 108 % of control; the T/C (dose: 177.0 mg/kg/injection, schedule: Q01DX009 (ip), vehicle: saline with Tween-80) was 95 % of control; the T/C (dose: 266.0 mg/kg/injection, schedule: Q01DX009 (ip), vehicle: saline with Tween-80) was 87 % of control.
Take `COc1cccc(/C=C/[N+](=O)[O-])c1`: the T/C (dose: 15.0 mg/kg/injection, schedule: Q01DX009 (ip), vehicle: saline with Tween-80) is 108 % of control; the T/C (dose: 20.0 mg/kg/injection, schedule: Q01DX009 (ip), vehicle: Klucel (hydroxypropylcellulose) (HPC)) was 107 % of control; the T/C (dose: 30.0 mg/kg/injection, schedule: Q01DX009 (ip), vehicle: Klucel (hydroxypropylcellulose) (HPC)) was 115 % of control; the T/C (dose: 60.0 mg/kg/injection, schedule: Q01DX009 (ip), vehicle: saline with Tween-80) was 100 % of control.
Regarding `N#Cc1ccc(C[n+]2cccc3c([N+](=O)[O-])cccc32)cc1`, the T/C is, setting by setting: under setting [8], 103 % of control; under setting [9], 108 % of control; under setting [6], 118 % of control.
With `COC(OC)C1(O)CC(C(C)/C=C(/C)C(CC(=O)N(C)c2ccccc2)OCc2ccccc2)OC(=O)N1` (stereo not given), the T/C by setting is: under setting [3], 99 % of control; under setting [4], 109 % of control; under setting [5], 118 % of control.
As to `CN(C)[C@@H]1C(=O)C(C(=O)NCNCCCC(=O)O)=C(O)[C@@]2(O)C(=O)C3=C(O)c4c(O)cccc4[C@@](C)(O)[C@H]3C[C@@H]12`, the T/C is 95 % of control under setting [7]; 104 % of control (dose: 200.0 mg/kg/injection, schedule: Q01DX009 (ip), vehicle: saline with Tween-80); 104 % of control (dose: 400.0 mg/kg/injection, schedule: Q01DX009 (ip), vehicle: saline with Tween-80).
For `Cc1cc(=O)[nH]c(N/N=C/c2ccc(N(CCCl)CCCl)cc2)n1`, the T/C is 95 % of control (dose: 100.0 mg/kg/injection, schedule: Q04DX003 (ip), vehicle: saline with Tween-80); 86 % of control under setting [10]; 95 % of control (dose: 400.0 mg/kg/injection, schedule: Q04DX003 (ip), vehicle: saline with Tween-80).
